Source: ChEMBL document CHEMBL1926625, “Identification of benzoxazin-3-one derivatives as novel, potent, and selective nonsteroidal mineralocorticoid receptor antagonists” (J Med Chem, 2011)

Tests used:
Progesterone receptor = molecular target: T1, Progesterone receptor (Homo sapiens, UniProt P06401); test: Displacement of [3H]progesterone from PR
T1 sequence (P06401 whole entry): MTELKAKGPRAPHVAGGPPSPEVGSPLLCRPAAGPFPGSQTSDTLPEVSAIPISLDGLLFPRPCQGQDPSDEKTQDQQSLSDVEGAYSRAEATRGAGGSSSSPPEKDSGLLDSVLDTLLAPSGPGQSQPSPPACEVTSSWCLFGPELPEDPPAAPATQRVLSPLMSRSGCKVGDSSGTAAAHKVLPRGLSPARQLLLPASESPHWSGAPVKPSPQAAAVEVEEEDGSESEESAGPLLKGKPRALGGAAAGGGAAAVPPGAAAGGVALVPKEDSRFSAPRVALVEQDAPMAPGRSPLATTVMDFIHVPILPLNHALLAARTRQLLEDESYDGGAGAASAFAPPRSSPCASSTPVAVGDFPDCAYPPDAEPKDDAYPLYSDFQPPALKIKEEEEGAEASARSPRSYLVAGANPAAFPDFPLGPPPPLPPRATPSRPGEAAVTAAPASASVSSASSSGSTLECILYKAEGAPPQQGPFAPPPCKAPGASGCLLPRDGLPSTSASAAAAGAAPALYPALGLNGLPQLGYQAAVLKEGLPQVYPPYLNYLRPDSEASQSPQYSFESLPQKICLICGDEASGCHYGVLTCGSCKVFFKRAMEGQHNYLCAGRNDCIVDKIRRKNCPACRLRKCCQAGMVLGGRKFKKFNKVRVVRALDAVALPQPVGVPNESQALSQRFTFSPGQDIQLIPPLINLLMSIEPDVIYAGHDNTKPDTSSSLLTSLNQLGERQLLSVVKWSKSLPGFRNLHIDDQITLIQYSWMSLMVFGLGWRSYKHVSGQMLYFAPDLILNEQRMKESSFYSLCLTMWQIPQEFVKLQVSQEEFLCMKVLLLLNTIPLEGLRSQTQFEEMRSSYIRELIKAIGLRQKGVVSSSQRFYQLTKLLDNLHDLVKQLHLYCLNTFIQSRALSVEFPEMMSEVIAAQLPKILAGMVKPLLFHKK

Androgen receptor = molecular target: T2, Androgen receptor (Homo sapiens, UniProt P10275); test: Displacement of [3H]testosterone from AR
T2 sequence (P10275 whole entry): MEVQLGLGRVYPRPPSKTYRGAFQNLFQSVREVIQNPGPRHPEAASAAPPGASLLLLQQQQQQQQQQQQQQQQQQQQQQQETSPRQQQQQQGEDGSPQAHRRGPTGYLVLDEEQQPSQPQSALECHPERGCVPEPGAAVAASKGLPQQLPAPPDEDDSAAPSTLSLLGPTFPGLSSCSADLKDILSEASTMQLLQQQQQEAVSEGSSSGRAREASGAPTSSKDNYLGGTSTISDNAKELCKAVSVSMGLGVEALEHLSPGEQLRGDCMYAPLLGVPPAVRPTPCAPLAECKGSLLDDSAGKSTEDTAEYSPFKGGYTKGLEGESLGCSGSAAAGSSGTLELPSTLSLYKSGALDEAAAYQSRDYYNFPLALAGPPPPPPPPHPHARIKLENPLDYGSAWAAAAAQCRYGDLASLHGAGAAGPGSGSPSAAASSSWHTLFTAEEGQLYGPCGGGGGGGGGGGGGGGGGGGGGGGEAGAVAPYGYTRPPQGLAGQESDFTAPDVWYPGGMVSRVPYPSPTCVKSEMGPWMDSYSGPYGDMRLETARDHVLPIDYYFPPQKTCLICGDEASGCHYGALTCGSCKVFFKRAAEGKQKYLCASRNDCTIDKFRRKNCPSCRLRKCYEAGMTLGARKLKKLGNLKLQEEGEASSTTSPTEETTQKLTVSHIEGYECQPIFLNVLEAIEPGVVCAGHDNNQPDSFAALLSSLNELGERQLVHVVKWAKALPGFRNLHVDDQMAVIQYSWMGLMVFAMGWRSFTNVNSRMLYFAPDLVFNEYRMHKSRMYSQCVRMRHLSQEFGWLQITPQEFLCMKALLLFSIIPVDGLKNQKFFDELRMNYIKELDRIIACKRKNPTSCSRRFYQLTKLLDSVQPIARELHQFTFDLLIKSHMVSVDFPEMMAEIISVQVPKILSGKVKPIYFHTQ

[1] = molecular target: T3, Mineralocorticoid receptor (Homo sapiens, UniProt P08235); test: biochemical
T3 sequence (P08235 whole entry): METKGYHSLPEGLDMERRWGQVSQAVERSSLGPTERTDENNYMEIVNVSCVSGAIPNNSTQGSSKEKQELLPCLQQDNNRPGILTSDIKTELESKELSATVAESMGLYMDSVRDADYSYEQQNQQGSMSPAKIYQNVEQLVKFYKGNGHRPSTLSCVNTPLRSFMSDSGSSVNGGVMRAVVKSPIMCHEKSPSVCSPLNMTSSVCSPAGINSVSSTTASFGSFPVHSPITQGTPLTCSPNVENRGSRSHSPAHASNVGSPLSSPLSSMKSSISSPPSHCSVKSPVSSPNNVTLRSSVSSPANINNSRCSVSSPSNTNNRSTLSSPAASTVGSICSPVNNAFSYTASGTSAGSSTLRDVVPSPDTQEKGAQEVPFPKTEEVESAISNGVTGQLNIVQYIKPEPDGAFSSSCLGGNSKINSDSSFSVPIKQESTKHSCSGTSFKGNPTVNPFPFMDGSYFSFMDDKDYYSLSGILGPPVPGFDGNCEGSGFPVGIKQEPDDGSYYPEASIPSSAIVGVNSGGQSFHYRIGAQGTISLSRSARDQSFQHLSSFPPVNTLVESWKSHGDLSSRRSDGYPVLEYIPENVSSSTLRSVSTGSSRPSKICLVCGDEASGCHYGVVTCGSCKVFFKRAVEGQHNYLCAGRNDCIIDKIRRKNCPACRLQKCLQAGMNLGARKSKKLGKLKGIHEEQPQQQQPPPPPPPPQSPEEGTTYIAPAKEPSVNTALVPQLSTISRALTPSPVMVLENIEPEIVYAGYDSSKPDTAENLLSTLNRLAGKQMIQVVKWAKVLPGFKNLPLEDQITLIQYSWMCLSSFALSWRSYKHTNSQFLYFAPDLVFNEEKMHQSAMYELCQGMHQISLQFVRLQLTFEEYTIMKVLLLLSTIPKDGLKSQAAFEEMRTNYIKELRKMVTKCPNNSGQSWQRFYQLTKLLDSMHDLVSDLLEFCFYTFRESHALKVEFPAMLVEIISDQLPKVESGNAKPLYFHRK
Description: Displacement of [3H]aldosterone from cytosolic human MR expressed in HEK293 cells after 16 hrs by scintillation counting

Glucocorticoid receptor = molecular target: T4, Glucocorticoid receptor (Homo sapiens, UniProt P04150); test: Displacement of [3H]dexomethasone from GR
T4 sequence (P04150 whole entry): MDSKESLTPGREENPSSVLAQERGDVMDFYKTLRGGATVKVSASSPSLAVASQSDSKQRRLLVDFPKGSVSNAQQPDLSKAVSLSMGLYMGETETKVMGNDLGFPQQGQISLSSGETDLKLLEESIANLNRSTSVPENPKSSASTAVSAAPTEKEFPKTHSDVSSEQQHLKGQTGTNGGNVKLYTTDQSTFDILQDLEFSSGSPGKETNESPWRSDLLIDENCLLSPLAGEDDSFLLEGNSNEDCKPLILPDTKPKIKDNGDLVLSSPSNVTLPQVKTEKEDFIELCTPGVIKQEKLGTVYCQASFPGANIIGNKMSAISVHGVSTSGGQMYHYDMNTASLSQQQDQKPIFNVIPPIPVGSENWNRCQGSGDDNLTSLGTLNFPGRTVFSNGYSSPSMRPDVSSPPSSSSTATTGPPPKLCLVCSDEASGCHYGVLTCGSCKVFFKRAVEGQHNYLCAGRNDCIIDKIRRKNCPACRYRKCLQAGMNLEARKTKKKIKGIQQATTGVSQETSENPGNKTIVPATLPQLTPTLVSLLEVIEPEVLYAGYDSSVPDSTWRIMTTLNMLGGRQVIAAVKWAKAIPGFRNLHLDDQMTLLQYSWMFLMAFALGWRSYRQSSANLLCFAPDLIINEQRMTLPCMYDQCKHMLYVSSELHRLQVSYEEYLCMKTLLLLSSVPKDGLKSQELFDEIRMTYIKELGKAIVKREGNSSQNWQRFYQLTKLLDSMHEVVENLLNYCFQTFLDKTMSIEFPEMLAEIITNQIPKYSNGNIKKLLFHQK

[2] = Clearance in rat liver microsomes at 1 umol/L preincubated for 5 mins measured after 60 mins by UV analysis; type: ADME, Microsome
[3] = molecular target: T3, Mineralocorticoid receptor
Description: Antagonist activity at human MR transfected in human COS1 cells after 1 day by luciferase reporter gene assay

[4] = Bioavailability in Sprague-Dawley rat at 3 mg/kg, iv and 10 mg/kg, po; type: ADME, organism-based; settings: in vivo

SMILES	IC50 (Progesterone receptor)	IC50 (Androgen receptor)	IC50 [1]	IC50 (Glucocorticoid receptor)	microsomal CLint at 1 µM [2]	IC50 [3]	bioavailability [4]
Cc1cc(-c2ccc3c(c2)NC(=O)CO3)n(-c2ccc(F)cc2)n1	> 10 µM	> 10 µM	1.1 µM	6.9 µM	164 µL/min/mg		
O=C1COc2ccc(-c3cc(C(F)(F)F)nn3-c3ccc(Cl)cc3)cc2N1			0.32 µM				
Cc1cc(F)ccc1-n1nc(C(F)(F)F)cc1-c1cc(F)c2c(c1)NC(=O)CO2	1.8 µM	> 10 µM	0.076 µM	1.7 µM		0.085 µM	
O=C1COc2ccc(-c3cc(CO)nn3-c3ccc(F)cc3)cc2N1			6.8 µM				
CCc1cc(-c2ccc3c(c2)NC(=O)CO3)n(-c2ccc(F)cc2)n1			0.96 µM				
O=C1COc2ccc(-c3cc(C(F)(F)C(F)(F)F)nn3-c3ccc(F)cc3)cc2N1			0.57 µM				
O=C1COc2ccc(-c3cc(C(F)(F)F)nn3-c3ccc(F)cc3)cc2N1			0.26 µM		24 µL/min/mg		28%
Cc1cc(F)ccc1-n1nc(C(F)(F)F)cc1-c1cc(Cl)c2c(c1)NC(=O)CO2	0.93 µM	4.5 µM	0.012 µM	0.2 µM		0.07 µM	
O=C1COc2ccc(-c3cc(C(F)(F)F)nn3-c3cccc(F)c3)cc2N1			1.1 µM				
Cc1ccc(-n2nc(C(F)(F)F)cc2-c2ccc3c(c2)NC(=O)CO3)cc1			0.59 µM				
Cc1cc(F)ccc1-n1nc(C(F)(F)F)cc1-c1cc(C)c2c(c1)NC(=O)CO2	2.4 µM	> 10 µM	0.021 µM	0.47 µM		0.015 µM	
CC(C)c1cc(-c2ccc3c(c2)NC(=O)CO3)n(-c2ccc(F)cc2)n1			> 10 µM				
O=C1COc2ccc(-c3c(C(F)(F)F)cnn3-c3ccc(F)cc3)cc2N1			2.7 µM				

Next, values leading:

IC50 (Progesterone receptor)	IC50 (Androgen receptor)	IC50 [1]	IC50 (Glucocorticoid receptor)	microsomal CLint at 1 µM [2]	IC50 [3]	bioavailability [4]	SMILES
1.6 µM	> 10 µM	2 µM	> 10 µM				O=C1COc2ccc(C3=Nn4cnnc4SC3)cc2N1
		0.44 µM					O=C1COc2ccc(-c3cc(C(F)(F)F)nn3-c3ccccc3F)cc2N1
		> 10 µM					Cc1nc(-c2ccc3c(c2)NC(=O)CO3)c(-c2ccccc2)[nH]1
		1.3 µM					O=C1COc2ccc(C3=Nn4cnnc4SC3Cc3ccccc3)cc2N1 (configuration not stated)
4.9 µM	> 10 µM	0.08 µM	2.5 µM		0.15 µM		Cc1ccccc1-n1nc(C(F)(F)F)cc1-c1ccc2c(c1)NC(=O)CO2
> 10 µM	5.9 µM	0.6 µM	5.5 µM				O=C1COc2ccc(C3=Nn4cnnc4SC3c3ccccc3F)cc2N1 (configuration not stated)
> 10 µM	3.6 µM		5.6 µM				O=C1COc2ccc(C3=Nn4cnnc4SC3c3ccccc3)cc2N1 (configuration not stated)
		> 10 µM					CC1(c2ccccc2)Sc2nncn2N=C1c1ccc2c(c1)NC(=O)CO2 (configuration not stated)
		> 10 µM					Cc1nc(-c2ccc3c(c2)NC(=O)CO3)c(-c2ccccc2)s1
> 10 µM	> 10 µM	5.3 µM	> 10 µM				Cc1cc(-c2ccc3c(c2)NC(=O)CO3)n(-c2ccccc2)n1
		0.7 µM					CCc1ccccc1-n1nc(C(F)(F)F)cc1-c1ccc2c(c1)NC(=O)CO2
		0.92 µM					N#Cc1cc(-c2ccc3c(c2)NC(=O)CO3)n(-c2ccc(F)cc2)n1
		0.43 µM					O=C1COc2ccc(-c3cc(C(F)(F)F)nn3-c3ccccc3Cl)cc2N1
1.4 µM	1.2 µM	0.069 µM	0.95 µM				O=C1COc2ccc(C3=Nc4ccccc4SC3c3ccccc3)cc2N1 (configuration not stated)
> 10 µM	> 10 µM	0.27 µM	> 10 µM	60 µL/min/mg			O=C1COc2ccc(C3=Nn4cnnc4SC3c3ccc(F)cc3)cc2N1 (configuration not stated)
0.35 µM	0.095 µM	0.036 µM	3.5 µM				O=C1COc2ccc(C3=Nn4ccnc4SC3c3ccccc3)cc2N1 (configuration not stated)
		4.1 µM					CCCC1Sc2nncn2N=C1c1ccc2c(c1)NC(=O)CO2 (configuration not stated)
> 10 µM	4.7 µM	0.31 µM	> 10 µM				O=C1COc2ccc(C3=Nn4cnnc4SC3c3cccc(F)c3)cc2N1 (configuration not stated)
